The text below walks through data of patent US9057727B2, “Screening methods using G-protein coupled receptors and related compositions” (The General Hospital Corporation, priority 2007, dated 2015).

For one assay, the system named is SaOS cells. As to the kind of experiment: cAMP production in SaOS cells, dose-response. The class given is cell-based.
Another assay relates to MC3T3-E1 cells. As to the kind of experiment: cAMP in MC3T3-E1 cells, dose-response. Type of assay: cell-based. On the procedure:
In the 1-30 scaffold, Gly, Ser, Leu, Asn, Gln, Trp, Glu, and Lys were substituted at position 29; Gly, Ser, Leu, Asn, Asp, Trp, and Lys were substituted at position 30; and Ser, Leu, Asn, Val, Trp, Glu, and Lys were substituted at position 31. […] These peptides were tested for cAMP activity in MC3T3-E1 cells.

Assay [1] deals with T1, human PTHR, G protein-coupled conformation (RG) (Homo sapiens, UniProt Q03431).
T1 construct: expressed in transfected cells; host or cells: COS-7, transient (Fugene-6); membranes
T1 sequence (Q03431 27-593): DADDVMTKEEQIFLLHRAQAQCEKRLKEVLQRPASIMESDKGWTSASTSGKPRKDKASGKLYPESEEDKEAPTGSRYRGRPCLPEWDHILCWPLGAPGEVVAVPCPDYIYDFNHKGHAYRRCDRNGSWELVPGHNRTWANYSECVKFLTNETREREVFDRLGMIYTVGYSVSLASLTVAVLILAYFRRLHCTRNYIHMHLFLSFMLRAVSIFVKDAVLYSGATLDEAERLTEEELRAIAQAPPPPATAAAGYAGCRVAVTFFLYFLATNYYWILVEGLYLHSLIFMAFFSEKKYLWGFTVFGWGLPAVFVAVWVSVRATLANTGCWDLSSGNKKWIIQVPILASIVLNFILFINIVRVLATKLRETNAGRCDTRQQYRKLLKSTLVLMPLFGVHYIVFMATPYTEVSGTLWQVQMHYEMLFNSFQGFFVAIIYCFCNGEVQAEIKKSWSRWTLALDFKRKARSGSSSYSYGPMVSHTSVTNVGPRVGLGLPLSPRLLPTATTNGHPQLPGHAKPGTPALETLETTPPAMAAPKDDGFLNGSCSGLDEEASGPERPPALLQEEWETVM
As to the kind of experiment: Competition binding to RG conformation of hPTHR (COS-7 membranes, GαsND, 125I-[Aib1,3,M]PTH(1-15) tracer). The note with it: for IC50: Table 2, read-out: RG binding affinity hPTHR IC50.

Assay [2] addresses T2, human PTHR, G protein-uncoupled conformation (R^0) (Homo sapiens, UniProt Q03431).
T2 construct: expressed in transfected cells; host or cells: COS-7, transient (Fugene-6)
T2 sequence (Q03431 27-593): T1 sequence (Q03431 27-593)
Kind of assay: Competition binding to R0 conformation of hPTHR (COS-7 membranes, GTPγS, 125I-PTH(1-34) tracer). The note with it: Table 2; for R0/RG selectivity: hPTHR; for IC50: read-out: R^0 binding affinity hPTHR IC50. The gist of the method: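 Membranes from hPTHR-transfected COS-7 cells (20-100 μg/mL protein) incubated 90 min with radioligand (~150,000 cpm/ml) and unlabeled ligands, then filtered. Specific binding expressed as % of binding without competitor.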

Assay [3] has as its system LLCPK1-B64 cells or SaOS-2 cells. Kind of assay: cAMP screen of substituted PTHrP(1-28) analogs (% parent). Type of assay: cell-based. The following applies: parent PTHrP(1-28)NH. In outline: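 LLCPK1-B64 or SaOS-2 cells exposed to peptide analogs at 3×10^−9M with IBMX for 30 minutes at room temperature, then cAMP measured. Each analog's response expressed as percentage of that for parent PTHrP(1-28).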

For another assay, the target named is T3, human PTH1 receptor (Homo sapiens, UniProt Q03431).
T3 construct: expressed in transfected cells
T3 sequence (Q03431 27-593): T1 sequence (Q03431 27-593)
Kind of assay: cAMP signaling dose-response in HKRK-B7 cells. The class given is cell-based. The note with it: 15 min, 37° C., IBMX. On the procedure:
In the cAMP experiments of FIG. 14, HKRK-B7 were seeded in 96 well plates at 1×10^5 cells/well and incubated overnight. On the following day, the cells were washed once with […] of binding buffer (50 mM Tris-HCl, pH 7.7, 100 mM NaCl, 5 mM KCl, 2 mM CaCl2, 5% heat-inactivated horse serum, 0.5% heat-inactivated fetal bovine serum), followed by addition of 100 μl cAMP assay buffer (DMEM, 2 mM IBMX, 1 mg/ml bovine serum albumin, 35 mM Hepes-NaOH, pH 7.4) on ice. […] After removing the medium, the plates were placed on powdered dry ice to freeze the cells and then removed from dry ice. The cells were thawed with 50 μl of 50 mM HCl and frozen again on dry ice. The level of intracellular cAMP was measured with a commercially available cAMP EIA kit (Biotrack cAMP EIA system, GE Healthcare).
HKRK-B, which are LLC-PK1 cells over-expressing human PTH1 receptor at levels of 9.5×10^5 per cell were used in the cAMP signaling assay. The cells were cultured at 37° C. in a humidified atmosphere containing 5% CO2 in Dulbecco's modified Eagle's medium (DMEM), supplemented with 10% fetal bovine serum (Hyclone), 100 units/ml penicillin G, and 100 μg/ml streptomycin sulfate (Invitrogen Corp). […] All peptides were dissolved at 1 mM in 10 mM acetic acid, and stored at −80° C. The cAMP stimulation assay was performed as described above for HKRK-B7 cells. […] Cells were treated for 15 minutes at 37° C. with varying concentrations of ligands in the presence of IBMX.

Assay [4] can be described thus: Plasma cAMP in C57BL/6 mice after intravenous injection. The following applies: i.v. (Example 4). The class given is in vivo.
Procedure: Blood was withdrawn 10 minutes after injection, and the plasma level of cAMP was measured by RIA.
Blood was withdrawn 10 minutes after injection and plasma level of cAMP was measured by RIA.
In the cAMP experiment (FIG. 29A), blood was withdrawn 10 minutes after injection and plasma level of cAMP was measured by RIA.
[5] abbreviates: Table 2, read-out: SaOS camp EC50.
Setting [6] is: Table 3, read-out: dose-response cAMP in SaOS (EC50).
The mark [7] stands for this setting: Table 2, read-out: MC3T3-E1 cAMP EC50.

Where two headings read alike, the source gives them in different places. Peptide text beside a SMILES is read from it.

As for `CC[C@H](C)[C@H](NC(=O)[C@H](CC(C)C)NC(=O)[C@H](CCCCN)NC(=O)[C@H](CC(C)C)NC(=O)[C@H](CC(C)C)NC(=O)[C@H](Cc1ccccc1)NC(=O)[C@H](C)NC(=O)[C@H](CCCNC(=N)N)NC(=O)[C@H](CCCNC(=N)N)NC(=O)[C@H](CCCNC(=N)N)NC(=O)[C@H](C)NC(=O)[C@H](CC(=O)O)NC(=O)[C@H](CCC(N)=O)NC(=O)[C@@H](NC(=O)[C@H](CO)NC(=O)[C@H](CCCCN)NC(=O)CNC(=O)[C@H](CCCCN)NC(=O)[C@H](CC(=O)O)NC(=O)[C@H](Cc1c[nH]cn1)NC(=O)[C@H](CC(C)C)NC(=O)[C@H](CC(C)C)NC(=O)[C@H](CCC(N)=O)NC(=O)[C@H](Cc1c[nH]cn1)NC(=O)[C@H](CCC(=O)O)NC(=O)[C@H](CO)NC(=O)[C@@H](NC(=O)[C@H](C)N)C(C)C)[C@@H](C)CC)C(N)=O` [A18, 22, L25, K26-PTHrP(1-28)NH, A18,22,L25,K26-PTHrP(1-28)] (H-AVSEHQLLHDKGKSIQDARRRAFLLKLI-NH2; N-terminus assumed), the “cAMP-inducing activity compared with parent, in words” value with SaOS cells was “Marked enhancements of cAMP-inducing activity”. The EC50 in the assay with SaOS cells (setting [5]) is 0.002 nM; with SaOS cells (setting [6]) it was 0.002 nM; with MC3T3-E1 cells (setting [7]) it was 0.054 nM; with MC3T3-E1 cells (Table 3, read-out: dose-response cAMP in MC3T3-E1 (EC50)), 0.054 nM. For the same molecule, in assay [1], the “cAMP potency and RG binding affinity compared with PTH(1-34), in words” value is “cAMP potency and RG binding affinity that is greater than that of PTH(1-34)”. Besides, the IC50 was 0.04 nM in assay [1] and 310 nM in assay [2]. The molecule also displayed an R0/RG selectivity in assay [2] of 6971. Moreover, in assay [3], the “screen cAMP (% parent)” value is 305 % parent. Further, the “cAMP in HKRK-B7 cells Max” value on human PTH1 receptor is 56.4 pm/well. For the same molecule, the “plasma cAMP 10 minutes after injection, in words” value in assay [4] is recorded as “Marked enhancements”.

On to `CC[C@H](C)[C@H](NC(=O)[C@H](CC(C)C)NC(=O)[C@H](CCCCN)NC(=O)[C@H](CC(C)C)NC(=O)[C@H](CC(C)C)NC(=O)[C@H](Cc1ccccc1)NC(=O)[C@H](C)NC(=O)[C@H](CCCNC(=N)N)NC(=O)[C@H](CCCNC(=N)N)NC(=O)[C@H](CCCNC(=N)N)NC(=O)[C@H](CCC(=O)O)NC(=O)[C@H](CC(=O)O)NC(=O)[C@H](CCC(N)=O)NC(=O)[C@@H](NC(=O)[C@H](CO)NC(=O)[C@H](CCCCN)NC(=O)CNC(=O)[C@H](CCCCN)NC(=O)[C@H](CC(=O)O)NC(=O)[C@H](Cc1c[nH]cn1)NC(=O)[C@H](CC(C)C)NC(=O)[C@H](CC(C)C)NC(=O)[C@H](CCC(N)=O)NC(=O)[C@H](Cc1c[nH]cn1)NC(=O)[C@H](CCC(=O)O)NC(=O)[C@H](CO)NC(=O)[C@@H](NC(=O)[C@H](C)N)C(C)C)[C@@H](C)CC)C(N)=O` [E18, A22, L25, K26-THrP(1-28)NH, E18,A22,L25,K26-PTHrP(1-28)] (H-AVSEHQLLHDKGKSIQDERRRAFLLKLI-NH2; N-terminus assumed), for which the “cAMP-inducing activity compared with parent, in words” value with SaOS cells is listed as “Marked enhancements of cAMP-inducing activity”. Besides, the EC50 amounted to 0.01 nM in the assay on SaOS cells (setting [5]), 0.01 nM in the assay with SaOS cells (setting [6]) and 0.083 nM in the assay on MC3T3-E1 cells (setting [7]). Further, the IC50 is 0.1 nM in assay [1] and 1740 nM in assay [2]. In addition, the R0/RG selectivity in assay [2] came to 18317. The “screen cAMP (% parent)” value in assay [3] was found to be 340 % parent. For the same molecule, the “plasma cAMP 10 minutes after injection, in words” value in assay [4] is recorded as “Marked enhancements”.
